Measurements: patent publication US8624034B2, “Fluoro-pyridinone derivatives useful as antibacterial agents” (Pfizer Inc., priority 2011, dated 2014)
In brackets after ≈: the same amount, converted by molar mass.

Experiments:
[1] = target: T1, Pseudomonas aeruginosa LpxC enzyme (Pseudomonas aeruginosa, UniProt P47205); assay: IC50 assay, LpxC enzyme from P. aeruginosa (PA LpxC enzyme IC50); format: biochemical; details: Table 3; LpxC enzyme 0.1 nM, 25° C., 1 hour; read-out: PA:IC50
T1 construct: made in house; host or cells: E. coli
T1 sequence (P47205 1-303): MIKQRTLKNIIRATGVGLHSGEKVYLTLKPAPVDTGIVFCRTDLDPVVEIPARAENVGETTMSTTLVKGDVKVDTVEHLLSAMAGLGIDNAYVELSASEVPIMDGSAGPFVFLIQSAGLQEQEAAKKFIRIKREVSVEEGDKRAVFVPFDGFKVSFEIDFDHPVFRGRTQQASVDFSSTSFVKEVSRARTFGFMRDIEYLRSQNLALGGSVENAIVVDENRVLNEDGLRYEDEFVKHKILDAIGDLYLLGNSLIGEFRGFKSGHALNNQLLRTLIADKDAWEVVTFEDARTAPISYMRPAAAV
Summary of the method: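 The LpxC reaction ran 1 hour and was stopped with HCl. Substrate-to-product conversion was measured by RapidFire mass spectrometry, and IC50 values were calculated from percent conversion relative to a no-enzyme control.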

[2] = test system: Acinetobacter baumannii/haemolyticus, multidrug-resistant clinical isolate (AB-3167); assay: MIC determination, AB-3167; format: cell-based; details: Table 3, lower of duplicate values
Summary of the method: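 Broth dilution MIC per CLSI M7-A8, 2-fold drug series, overnight incubation, lowest concentration visibly inhibiting growth against drug-free control. Run in duplicate, lower value reported; duplicates differing >2-fold repeated; QC strains and reference compounds required in range.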

[3] = test system: Escherichia coli EC-1: VOGEL, mouse virulent; assay: MIC determination, EC-1; format: cell-based; details: Escherichia coli, read-out: EC-1 (MIC), Table 3, lower of duplicate values
Summary of the method: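 MIC against mouse-virulent E. coli EC-1 (VOGEL) was determined by CLSI M7-A8 broth dilution with 2-fold drug increments and overnight incubation. The MIC is the lowest concentration with no visible growth versus drug-free control. Tests were run in duplicate and the lower value reported if within 2-fold, with QC organisms and reference drugs in each run.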

[4] = test system: PA:UC12120; assay: MIC determination, PA:UC12120 (Table 3); format: cell-based, Pseudomonas aeruginosa; details: Pseudomonas aeruginosa, UC12120, Table 3, lower of duplicate values
Summary of the method: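 CLSI broth dilution MIC with 2-fold concentration steps, overnight incubation; MIC is the lowest concentration visibly inhibiting growth versus drug-free control. Run in duplicate, lower value reported when within 2-fold; control organisms and reference compounds required within defined ranges.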

SMILES | IC50 [1] | MIC [2] | MIC [3] | MIC [4]
CC(CCn1cc(F)c(-c2ccc(Cl)cc2F)cc1=O)(C(=O)NO)S(C)(=O)=O (centres unmarked) [Example 66, 4-[4-(4-chloro-2-fluorophenyl)-5-fluoro-2-oxopyridin-1(2H)-yl]-N-hydroxy-2-methyl-2-(methylsulfonyl)butanamide] | 0.8 nM | 64 µg/mL (≈ 147 µM) | 0.5 µg/mL (≈ 1.15 µM) | 0.5 µg/mL (≈ 1.15 µM)
COC(C)c1ccc(-c2cc(=O)n(CCC(C)(C(=O)NO)S(C)(=O)=O)cc2F)cc1 (centres unmarked) [Example 88, 4-{5-fluoro-4-[4-(1-methoxyethyl)phenyl]-2-oxopyridin-1(2H)-yl}-N-hydroxy-2-methyl-2-(methylsulfonyl)butanamide] | 7.6 nM | > 64 µg/mL | 16 µg/mL (≈ 36.3 µM) | 4 µg/mL (≈ 9.08 µM)
Cc1ncc(-c2cc(=O)n(CCC(C)(C(=O)NO)S(C)(=O)=O)cc2F)cc1F (centres unmarked) [Example 83, 4-(5,5′-difluoro-6-methyl-2′-oxo-3,4′-bipyridin-1′(2′H)-yl)-N-hydroxy-2-methyl-2-(methylsulfonyl)butanamide] | 27.5 nM | > 64 µg/mL | > 64 µg/mL | 32 µg/mL (≈ 77 µM)
CN1Cc2cc(-c3cc(=O)n(CCC(C)(C(=O)NO)S(C)(=O)=O)cc3F)ccc2C1=O (centres unmarked) [Example 64, 4-[5-fluoro-4-(2-methyl-1-oxo-2,3-dihydro-1H-isoindol-5-yl)-2-oxopyridin-1(2H)-yl]-N-hydroxy-2-methyl-2-(methylsulfonyl)butanamide] | 7.2 nM | > 64 µg/mL | > 64 µg/mL | 64 µg/mL (≈ 142 µM)
COc1cc(C)cc(-c2cc(=O)n(CCC(C)(C(=O)NO)S(C)(=O)=O)cc2F)c1F (centres unmarked) [Example 111, 4-[5-fluoro-4-(2-fluoro-3-methoxy-5-methylphenyl)-2-oxopyridin-1(2H)-yl]-N-hydroxy-2-methyl-2-(methylsulfonyl)butanamide] | 3 nM | > 64 µg/mL | 4 µg/mL (≈ 9 µM) | 4 µg/mL (≈ 9 µM)
Cn1cnc2cc(-c3cc(=O)n(CCC(C)(C(=O)NO)S(C)(=O)=O)cc3F)cnc21 (centres unmarked) [Example 71, 4-[5-fluoro-4-(3-methyl-3H-imidazo[4,5-b]pyridin-6-yl)-2-oxopyridin-1(2H)-yl]-N-hydroxy-2-methyl-2-(methylsulfonyl)butanamide] | > 100 nM | > 64 µg/mL | > 64 µg/mL | > 64 µg/mL
CC(CCn1cc(F)c(-c2ccc3c(c2)CNC3=O)cc1=O)(C(=O)NO)S(C)(=O)=O (centres unmarked) [Example 108, 4-[5-fluoro-2-oxo-4-(1-oxo-2,3-dihydro-1H-isoindol-5-yl)pyridin-1(2H)-yl]-N-hydroxy-2-methyl-2-(methylsulfonyl)butanamide] | 7.2 nM | > 64 µg/mL | > 64 µg/mL | > 64 µg/mL
CC(CCn1cc(F)c(-c2cccc(F)c2F)cc1=O)(C(=O)NO)S(C)(=O)=O (centres unmarked) [Example 117, 4-[4-(2,3-difluorophenyl)-5-fluoro-2-oxopyridin-1(2H)-yl]-N-hydroxy-2-methyl-2-(methylsulfonyl)butanamide] | 0.8 nM | > 64 µg/mL | 2 µg/mL (≈ 4.78 µM) | 0.5 µg/mL (≈ 1.2 µM)
COc1cc(C#N)ccc1-c1cc(=O)n(CCC(C)(C(=O)NO)S(C)(=O)=O)cc1F (centres unmarked) [Example 101, 4-[4-(4-cyano-2-methoxyphenyl)-5-fluoro-2-oxopyridin-1(2H)-yl]-N-hydroxy-2-methyl-2-(methylsulfonyl)butanamide] | 5.2 nM | > 64 µg/mL | 64 µg/mL (≈ 146 µM) | 8 µg/mL (≈ 18.3 µM)
CCOc1ccc(-c2cc(=O)n(CCC(C)(C(=O)NO)S(C)(=O)=O)cc2F)cc1 (centres unmarked) [Example 76, 4-[4-(4-ethoxyphenyl)-5-fluoro-2-oxopyridin-1(2H)-yl]-N-hydroxy-2-methyl-2-(methylsulfonyl)butanamide] | 1.1 nM | > 64 µg/mL | 0.25 µg/mL (≈ 0.586 µM) | 0.5 µg/mL (≈ 1.17 µM)
CC(CCn1cc(F)c(-c2ccc(CC#N)cc2)cc1=O)(C(=O)NO)S(C)(=O)=O (centres unmarked) [Example 91, 4-{4-[4-(cyanomethyl)phenyl]-5-fluoro-2-oxopyridin-1(2H)-yl}-N-hydroxy-2-methyl-2-(methylsulfonyl)butanamide] | 2.3 nM | > 64 µg/mL | 16 µg/mL (≈ 38 µM) | 4 µg/mL (≈ 9.49 µM)
CC(CCn1cc(F)c(-c2ccc(C#N)cc2)cc1=O)(C(=O)NO)S(C)(=O)=O (centres unmarked) [Example 124, 4-[4-(4-cyanophenyl)-5-fluoro-2-oxopyridin-1(2H)-yl]-N-hydroxy-2-methyl-2-(methylsulfonyl)butanamide] | 3.4 nM | > 64 µg/mL | 32 µg/mL (≈ 78.5 µM) | 8 µg/mL (≈ 19.6 µM)
COCc1cccc(-c2cc(=O)n(CCC(C)(C(=O)NO)S(C)(=O)=O)cc2F)c1 (centres unmarked) [Example 93, 4-{5-fluoro-4-[3-(methoxymethyl)phenyl]-2-oxopyridin-1(2H)-yl}-N-hydroxy-2-methyl-2-(methylsulfonyl)butanamide] | 14.2 nM | > 64 µg/mL | 32 µg/mL (≈ 75 µM) | 8 µg/mL (≈ 18.8 µM)
CC(CCn1cc(F)c(-c2ccc(C#N)c(F)c2)cc1=O)(C(=O)NO)S(C)(=O)=O (centres unmarked) [Example 58, 4-[4-(4-cyano-3-fluorophenyl)-5-fluoro-2-oxopyridin-1(2H)-yl]-N-hydroxy-2-methyl-2-(methylsulfonyl)butanamide] | 2.6 nM | > 64 µg/mL | 32 µg/mL (≈ 75.2 µM) | 8 µg/mL (≈ 18.8 µM)
COc1ncccc1-c1cc(=O)n(CCC(C)(C(=O)NO)S(C)(=O)=O)cc1F (centres unmarked) [Example 69, 4-(5′-fluoro-2-methoxy-2′-oxo-3,4′-bipyridin-1′(2′H)-yl)-N-hydroxy-2-methyl-2-(methylsulfonyl)butanamide] | 16.6 nM | > 64 µg/mL | 64 µg/mL (≈ 155 µM) | 8 µg/mL (≈ 19.4 µM)
CC(CCn1cc(F)c(-c2cnc3ccccc3c2)cc1=O)(C(=O)NO)S(C)(=O)=O (centres unmarked) [Example 87, 4-(5-fluoro-2-oxo-4-quinolin-3-ylpyridin-1(2H)-yl)-N-hydroxy-2-methyl-2-(methylsulfonyl)butanamide] | 6.1 nM | > 64 µg/mL | 16 µg/mL (≈ 36.9 µM) | 8 µg/mL (≈ 18.5 µM)
CC(C)Oc1ncccc1-c1cc(=O)n(CCC(C)(C(=O)NO)S(C)(=O)=O)cc1F (centres unmarked) [Example 104, 4-(5′-fluoro-2-isopropoxy-2′-oxo-3,4′-bipyridin-1′(2′H)-yl)-N-hydroxy-2-methyl-2-(methylsulfonyl)butanamide] | > 100 nM | 32 µg/mL (≈ 72.5 µM) | 8 µg/mL (≈ 18.1 µM) | 32 µg/mL (≈ 72.5 µM)
CC(CCn1cc(F)c(-c2ccc(O)nc2)cc1=O)(C(=O)NO)S(C)(=O)=O (centres unmarked) [Example 80, 4-(5′-fluoro-6-hydroxy-2′-oxo-3,4′-bipyridin-1′(2′H)-yl)-N-hydroxy-2-methyl-2-(methylsulfonyl)butanamide] | > 100 nM | > 64 µg/mL | > 64 µg/mL | > 64 µg/mL
CC(CCn1cc(F)c(-c2ccc(O)cc2)cc1=O)(C(=O)NO)S(C)(=O)=O (centres unmarked) [Example 53, 4-[5-fluoro-4-(4-hydroxyphenyl)-2-oxopyridin-1(2H)-yl]-N-hydroxy-2-methyl-2-(methylsulfonyl)butanamide] | 4.2 nM | > 64 µg/mL | > 64 µg/mL | 64 µg/mL (≈ 161 µM)
CNC(=O)c1ccc(-c2cc(=O)n(CCC(C)(C(=O)NO)S(C)(=O)=O)cc2F)cc1 (centres unmarked) [Example 84, 4-{5-fluoro-1-[4-(hydroxyamino)-3-methyl-3-(methylsulfonyl)-4-oxobutyl]-2-oxo-1,2-dihydropyridin-4-yl}-N-methylbenzamide] | 14.5 nM | > 64 µg/mL | > 64 µg/mL | > 64 µg/mL
CN(C)C(=O)c1ccc(-c2cc(=O)n(CCC(C)(C(=O)NO)S(C)(=O)=O)cc2F)cc1 (centres unmarked) [Example 68, 4-{5-fluoro-1-[4-(hydroxyamino)-3-methyl-3-(methylsulfonyl)-4-oxobutyl]-2-oxo-1,2-dihydropyridin-4-yl}-N,N-dimethylbenzamide] | 34.3 nM | > 64 µg/mL | > 64 µg/mL | > 64 µg/mL
CCOc1ccc(-c2cc(=O)n(CCC(C)(C(=O)NO)S(C)(=O)=O)cc2F)cc1F (centres unmarked) [Example 95, 4-[4-(4-ethoxy-3-fluorophenyl)-5-fluoro-2-oxopyridin-1(2H)-yl]-N-hydroxy-2-methyl-2-(methylsulfonyl)butanamide] | 1.2 nM | 64 µg/mL (≈ 144 µM) | 1 µg/mL (≈ 2.25 µM) | 2 µg/mL (≈ 4.5 µM)
COc1cc(-c2cc(=O)n(CCC(C)(C(=O)NO)S(C)(=O)=O)cc2F)ccc1F (centres unmarked) [Example 67, 4-[5-fluoro-4-(4-fluoro-3-methoxyphenyl)-2-oxopyridin-1(2H)-yl]-N-hydroxy-2-methyl-2-(methylsulfonyl)butanamide] | 4.5 nM | 64 µg/mL (≈ 149 µM) | 16 µg/mL (≈ 37.2 µM) | 4 µg/mL (≈ 9.29 µM)
